Assay [1] addresses T1, PRMT5-MEP50 enzyme complex (Homo sapiens, UniProt O14744).
T1 construct: Full-length (FL)-PRMT5-MEP50 enzyme complex (recombinant proteins from baculovirus-transfected Sf21 cells: FL-PRMT5; MW=73837 kDa and FL-MEP50; MW=38614); made in house; host or cells: baculovirus-transfected Sf21 cells
Nature of the assay: PRMT5-MEP50 Enzyme Methylation Assay (Version B). It counts as biochemical. The procedure: PRMT5-MEP50 Enzyme Methylation Assay (Version B)
PRMT5-MEP50 biochemical assay is a direct measurement of the methylation activity of the enzyme complex on a short peptide substrate derived from the N-terminus of H4 histone. Methylation experiment was performed with recombinant PRMT5-MEP50 protein complex. The assessment of inhibitory effect (EC50) of small molecules was measured by the effectiveness of the compounds to inhibit this reaction.
In this assay, the potency (EC50) of each compound was determined from a twenty-point (1:2 serial dilution; top compound concentration of 100000 nM) titration curve using the following outlined procedure. To each well of a white ProxiPlus 384 well-plate, 100 nL of compound (1% DMSO in final assay volume of 10 μL) was dispensed, followed by the addition of 8 μL of 1× assay buffer (50 mM Bicine pH 8.0, 1 mM DTT, 0.004% Tween20, 0.01% BSA) containing 0.625 nM of Full-length (FL)-PRMT5-MEP50 enzyme complex (recombinant proteins from baculovirus-transfected Sf21 cells: FL-PRMT5; MW=[…] and FL-MEP50; MW=38614). Plates were sealed and placed in a 37° C. humidified chamber for 30 minutes pre-incubation with compounds. Subsequently, each reaction was initiated by the addition of 2 μL 1× assay buffer containing 375 nM biotinylated H4R3 (MeI) peptide, and 75 μM S-(5′-Adenosyl)-L-Methionine Chloride (SAM). The final reaction in each well of 10 μL consists of 0.5 nM PRMT5-MEP50, 75 nM biotinylated-peptide, and 15 μM SAM. Methylation reactions were allowed to proceed for 150 minutes in a sealed plate at 37° C. Reactions were immediately quenched by the addition of 1 μL of 10% formic acid. Plates were then frozen and shipped to SAMDI™ Tech Inc. to determine the percent conversion from […]. Dose-response curves were generated by plotting percent effect (% product conversion; Y-axis) vs. Log 10 compound concentrations (X-axis). EC50 values were determined by non-linear regression according to models for either sigmoidal (4 parameters) or biphasic (7 parameters) dose-response curves.

The target of another assay is T2, PRMT5 (Homo sapiens, UniProt O14744).
T2 construct: seeded with 4000 MCF-7 cells in 30 μl media; endogenous in cells; host or cells: MCF-7 cells
T2 sequence (O14744 whole entry): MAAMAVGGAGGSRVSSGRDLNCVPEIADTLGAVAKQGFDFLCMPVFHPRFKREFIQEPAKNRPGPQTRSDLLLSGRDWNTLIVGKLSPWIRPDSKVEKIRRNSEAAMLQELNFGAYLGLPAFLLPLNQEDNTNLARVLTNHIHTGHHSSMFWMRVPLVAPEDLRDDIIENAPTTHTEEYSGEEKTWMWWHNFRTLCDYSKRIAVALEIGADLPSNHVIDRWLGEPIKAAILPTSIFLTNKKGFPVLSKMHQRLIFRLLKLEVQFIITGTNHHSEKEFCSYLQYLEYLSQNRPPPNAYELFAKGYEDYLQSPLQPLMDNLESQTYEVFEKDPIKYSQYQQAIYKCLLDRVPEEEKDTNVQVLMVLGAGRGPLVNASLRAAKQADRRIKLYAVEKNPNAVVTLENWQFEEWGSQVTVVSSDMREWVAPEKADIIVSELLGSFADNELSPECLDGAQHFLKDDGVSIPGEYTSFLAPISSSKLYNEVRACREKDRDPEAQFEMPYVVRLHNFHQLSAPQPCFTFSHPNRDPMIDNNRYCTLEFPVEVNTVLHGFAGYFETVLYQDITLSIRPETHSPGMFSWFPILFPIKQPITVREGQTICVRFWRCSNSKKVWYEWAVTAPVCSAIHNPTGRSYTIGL
T2 sequence (Q9BQA1 whole entry partner): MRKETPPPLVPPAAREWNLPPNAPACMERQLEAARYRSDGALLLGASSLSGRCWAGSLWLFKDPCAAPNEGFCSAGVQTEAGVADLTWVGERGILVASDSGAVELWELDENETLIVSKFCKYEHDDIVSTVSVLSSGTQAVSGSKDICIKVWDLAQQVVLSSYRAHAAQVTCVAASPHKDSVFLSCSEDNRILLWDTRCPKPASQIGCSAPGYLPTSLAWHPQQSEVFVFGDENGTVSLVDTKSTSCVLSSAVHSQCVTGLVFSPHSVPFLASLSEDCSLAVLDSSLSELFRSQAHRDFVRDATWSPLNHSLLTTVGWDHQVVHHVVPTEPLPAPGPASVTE
Nature of the assay: PRMT5 Cell Target Engagement (TE) Assay. It counts as cell-based. The following applies: MCF-7 cells, treated for 3 days, symmetric dimethylation of arginine (SDMA) by high content imaging. The source says: PRMT5 Cell Target Engagement (TE) Assay
The PRMT5 TE assay is a biomarker assay for identifying compounds that inhibit symmetric dimethylation of arginine (SDMA) of PRMT5 substrates. The following substrates have been reported for PRMT5: histone H2A and H4 R3, Histone H3 R2, Histone H3 R8, spliceosome Sm proteins, ribosomal protein RPS10, p53, FEN1, nucleoplasmin, nucleolin, EGFR and EBNA. The assay focuses on detecting symmetrically dimethylated nuclear proteins using high content imaging technology. Detection of the expression of symmetrically dimethylated nuclear proteins is through a mixture of primary rabbit monoclonal antibodies to SDMA (CST 13222), which in turn recognized by an Alexafluor 488 dye-conjugated anti-rabbit IgG secondary antibody. The IN Cell Analyzer 2200 or Opera-Phenix measures nuclear Alexafluor 488 fluorescent dye intensity that is directly related to the level of expression of symmetrically dimethylated nuclear proteins at the single cell level. Nuclear AF488 dye intensities are compared to the mean value for DMSO treated cells (MIN) to report percent of inhibition for each compound-treated well.
In this assay, the cell potency (EC50) of each compound was determined from a ten point (1:3 serial dilution; top compound concentration of 10000 nM) titration curve using the following outlined procedure. Each well of a BD falcon collagen coated black/clear bottom 384-well plate was seeded with 4000 MCF-7 cells in 30 μl media and allowed to attach for 5 h. Media is ATCC-formulated Eagle's Minimum Essential Medium, Catalog No. 30-2003. To make the complete growth medium, the following components were added to the base medium: 0.01 mg/mL human recombinant insulin; fetal bovine serum to a final concentration of 10%. Additional 30 μl of media containing 2× compounds were added to each well. Cells were treated for 3 days in 37° C. CO2 incubator. On day 3, cells were fixed with Cytofix, permeabilized with 0.4% Triton-X-100/Cytofix, and washed with D-PBS without Ca/Mg. Cells were blocked with Licor Odessey blocking reagent for 1 h at room temperature, followed by incubation with anti-SDMA (1:1000) antibody at 4° C. overnight. 1° antibody was removed, followed by three washings with DPBS without Ca/Mg and 0.05% Tween20. Hoechst (5 μg/mL), Cell Mask deep stain (1:2000) and Alexa488-conjugated goat anti-rabbit IgG (2 μg/mL) was added for 1 h at room temperature. A final washing step (three washes) was performed before sealing plate for imaging on In Cell Analyzer 2200 or Opera-Phenix. Images from analyzer were uploaded to Columbus (at WP or BOS) for image analysis. IC50 values were determined by 4 parameters robust fit of percent fluorescence units vs. (Log10) compound concentrations.

Where [2] appears, read: first of two EC50s: 7 parameters biphasic model, read-out: Enzyme Methylation Assay Version B (EC50_1).
The mark [3] stands for this setting: second of two EC50s: 7 parameters biphasic model, read-out: Enzyme Methylation Assay Version B (EC50_2).
Where [4] appears, read: only one EC50 shown: 4 parameters single site sigmoidal model, 30 min pre-incubation, read-out: Enzyme Methylation Assay Version B (EC50).

Structures are written as SMILES. Read-outs that look alike come from different tables or passages of the source.

T1 sequence (O14744 whole entry): as the sequence (O14744 whole entry) above
T1 sequence (Q9BQA1 whole entry partner): as the sequence (Q9BQA1 whole entry partner) above

For `CC(=O)N1CCC(Nc2cc(C(=O)N3CCC(N4Cc5ccccc5C(F)(F)C4)C(O)C3)c(Cl)cn2)CC1` (single isomer, unassigned) [Example 28, l-(4-((5-chloro-4-(-4-(4,4-difluoro-3,4-dihydroisoquinolin-2(lH)-yl)-3-hydroxypiperidine-1 - carbonyl)pyridin-2-yl)amino)piperidin-1-yl)ethan-1-one], the figures for the EC50 (in assay [1] (setting [2]); in assay [1] (setting [3]); at PRMT5) were 1270 nM, 45200 nM and 1660 nM, respectively.
`O=C(c1ccc(OCC(F)(F)F)nc1)N1CCC(N2Cc3ccccc3C(F)(F)C2)C(O)C1` (single isomer, unassigned) [Example 29, (-4-(4,4-difluoro-3,4-dihydroisoquinolin-2(1H)-yl)-3-hydroxypiperidin-1-yl)(6-(2,2,2-trifluoroethoxy)pyridin-3-yl)methanone]: the EC50 was 1340 nM in assay [1] (setting [4]) and greater than 10000 nM at PRMT5.
Take `CC(=O)N1CCC(Nc2cc(C(=O)N3C[C@H]4C[C@@H]3C(O)C4N3CCc4ccccc4C3)c(F)cn2)CC1` (single isomer, unassigned) [Example 30]: the values for the EC50 (in assay [1] (setting [4]); on PRMT5) were 4830 nM and greater than 10000 nM, respectively.
The corresponding values for `Cc1ccc2c(c1)CN(C1CCN(C(=O)c3ccc(OCC(F)(F)F)nc3)CC1O)CC2` (single isomer, unassigned) [Example 47, ((3R,4R or 3S,4S)-3-hydroxy-4-(7-methyl-3,4-dihydroisoquinolin-2(1H)-yl)piperidin-1-yl)(6-(2,2,2-trifluoroethoxy)pyridin-3-yl)methanone] are 1180 nM and greater than 10000 nM.
Turning to `Cc1ccc2c(c1)CN(C1CCN(C(=O)c3ccc(OCC(F)(F)F)nc3)CC1O)CC2` (single isomer, unassigned) [Example 48, ((3S,4S or 3R,4R)-3-hydroxy-4-(7-methyl-3,4-dihydroisoquinolin-2(1H)-yl)piperidin-1-yl)(6-(2,2,2-trifluoroethoxy)pyridin-3-yl)methanone], the figures for the EC50 (in assay [1] (setting [4]); on PRMT5) were 17800 nM and greater than 10000 nM, respectively.
In the case of `O=C(c1cn2c(n1)CCC(C(F)(F)F)C2)N1CC[C@H](N2CCc3ccccc3C2)[C@@H](O)C1` (single isomer, unassigned) [Example 82], the EC50 in assay [1] (setting [2]) was roughly 8 nM; in assay [1] (setting [3]), 6170 nM; at PRMT5 it was 100 nM.
The corresponding values for `O=C(c1cn2c(n1)CCC(C(F)(F)F)C2)N1CC[C@H](N2CCc3ccccc3C2)[C@@H](O)C1` (single isomer, unassigned) [Example 83] are 12 nM, 9550 nM and 365 nM.
The corresponding values for `CC(=O)N1CCC(Nc2cc(C(=O)N3CC[C@H](N4CCc5ccccc5C4)[C@@H](O)C3)c(F)cn2)C(F)(F)C1` (single isomer, unassigned) [Example 86] are 5.3 nM, 3760 nM and 4.4 nM.
The corresponding values for `CC(=O)N1CCC(Nc2cc(C(=O)N3CC[C@H](N4CCc5ccccc5C4)[C@@H](O)C3)c(F)cn2)C(F)(F)C1` (single isomer, unassigned) [Example 87] are 8.6 nM, 7240 nM and 59 nM.
On to `CC(C)(C#N)c1ccc(C(=O)N2CC[C@H](N3CCc4ccccc4C3)[C@@H](O)C2)cn1` (single isomer, unassigned) [Example 89], for which the EC50 is roughly 110 nM in assay [1] (setting [2]), greater than 100000 nM in assay [1] (setting [3]) and 3950 nM at PRMT5.
`CC(C)(C#N)c1ccc(C(=O)N2CC[C@@H](N3CCc4ccccc4C3)[C@H](O)C2)cn1` (single isomer, unassigned) [Example 90]: the EC50 in assay [1] (setting [4]) is 1540 nM; on PRMT5, greater than 10000 nM.
Turning to `CC1OC(=O)Nc2cc(C(=O)N3CC[C@H](N4CCc5ccccc5C4)[C@@H](O)C3)ccc21` (single isomer, unassigned) [Example 91], the EC50 was 127 nM in assay [1] (setting [2]), 70800 nM in assay [1] (setting [3]) and 7530 nM at PRMT5.
For `CC1OC(=O)Nc2cc(C(=O)N3CC[C@@H](N4CCc5ccccc5C4)[C@H](O)C3)ccc21` (single isomer, unassigned) [Example 92], the EC50 in assay [1] (setting [2]) is 4.4 nM; in assay [1] (setting [3]) it was 2460 nM; at PRMT5, 32 nM.
Consider `CC1OC(=O)Nc2cc(C(=O)N3CC[C@@H](N4CCc5ccccc5C4)[C@H](O)C3)ccc21` (single isomer, unassigned) [Example 93], for which the EC50 in assay [1] (setting [2]) is roughly 18 nM; in assay [1] (setting [3]), 11800 nM; on PRMT5, 182 nM.
The corresponding values for `CC1OC(=O)Nc2cc(C(=O)N3CC[C@H](N4CCc5ccccc5C4)[C@@H](O)C3)ccc21` (single isomer, unassigned) [Example 94] are roughly 291 nM, greater than 100000 nM and 4560 nM.
In the case of `CC1OC(=O)Nc2cc(C(=O)N3CC[C@H](N4CCc5ccccc5C4)[C@@H](O)C3)c(F)cc21` (single isomer, unassigned) [Example 99], the EC50 stood at 8.2 nM in assay [1] (setting [2]), 8710 nM in assay [1] (setting [3]) and 131 nM at PRMT5.
The corresponding values for `CC1OC(=O)Nc2cc(C(=O)N3CC[C@H](N4CCc5ccccc5C4)[C@@H](O)C3)c(F)cc21` (single isomer, unassigned) [Example 100] are 4.8 nM, 1720 nM and 15 nM.
The corresponding values for `CC(=O)N1CCC(Nc2cc(C(=O)N3CC[C@@H](N4CCc5ccccc5C4)[C@H](O)C3)c(F)cn2)CC1` [Example 3, 1-(4-((4-((3R,4R)-4-(3,4-dihydroisoquinolin-2(1H)-yl)-3-hydroxypiperidine-l-carbonyl)-5-fluoropyridin-2-yl)amino)piperidin-l-yl)ethan-l-one] are roughly 75 nM, 37600 nM and 3090 nM.
The corresponding values for `Cc1ccc2c(c1)CCN([C@H]1CCN(C(=O)c3ccc(OCC(F)(F)F)nc3)C[C@@H]1O)C2` [Example 4, ((3S,4S)-3-hydroxy-4-(6-methyl-3,4-dihydroisoquinolin-2(1H)-yl)piperidin-1-yl)(6-(2,2,2-trifluoroethoxy)pyridin-3-yl)methanone] are roughly 10 nM, 29200 nM and greater than 10000 nM.

The values above are taken from US12595248B2, “PRMT5 inhibitors” (Merck Sharp & Dohme LLC, priority 2019, dated 2026).
